Data published in patent US20230391845A1, “GLP-1, GIP AND GLUCAGON RECEPTOR TRIPLE AGONISTS” (priority 2020, published 2023).
Read-outs that look alike come from different tables or passages of the source. *1 amine or outer side, *2 acyl side, *3 side chain or, on linkers, in order; H or OH if unused. Where a SMILES comes first, the peptide text is derived from it. Side-chain parts run from the residue outwards. [ ]: non-standard residue; d: D form. The star is where a group is joined. C20 diacid = O=C(O)CCCCCCCCCCCCCCCCCCC(=O)*; γGlu = O=C(O)[C@H](CCC(=O)[*:2])N[*:1]; εLys = N[C@@H](CCCCN[*:1])C(=O)[*:2]; Palmitoyl = CCCCCCCCCCCCCCCC(=O)*; Aib = CC(C)(N)C(=O)O

Experiments:
[1] = molecular target: T1, human GLP-1 receptor (Homo sapiens, UniProt P43220); test: In vitro functional potency (CRE luciferase; whole cells), human GLP-1R; format: cell-based
T1 construct: expressed in transfected cells; host or cells: BHK cells (parent line BHKTS13) containing CRE luciferase
T1 sequence (P43220 24-463): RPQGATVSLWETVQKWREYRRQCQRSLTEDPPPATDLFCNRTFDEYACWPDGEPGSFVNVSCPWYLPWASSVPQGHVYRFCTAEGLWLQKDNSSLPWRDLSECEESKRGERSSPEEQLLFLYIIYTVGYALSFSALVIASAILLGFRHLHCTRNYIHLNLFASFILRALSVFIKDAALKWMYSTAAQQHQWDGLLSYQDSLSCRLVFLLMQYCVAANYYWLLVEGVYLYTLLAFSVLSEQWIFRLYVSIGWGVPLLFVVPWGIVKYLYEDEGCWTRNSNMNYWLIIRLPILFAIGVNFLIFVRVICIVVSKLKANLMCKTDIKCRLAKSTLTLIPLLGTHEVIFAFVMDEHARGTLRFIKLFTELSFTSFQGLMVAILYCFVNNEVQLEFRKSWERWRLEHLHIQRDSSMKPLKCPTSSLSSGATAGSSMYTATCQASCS

[2] = Pharmacodynamic study in DIO mice, daily s.c. dosing over 13 days (body weight, food intake); format: in vivo, C57BL/6J male mice; settings: for Absolute BW (grams) Day 0: Day 0 (baseline); for Cumulative food intake (grams) Day 13: mean ± SEM, n = 2
Procedure: The purpose of this example is to assess the in vivo effect of selected triple agonists on pharmacodynamic parameters in diet-induced obese (DIO) mice. The animals were treated once daily via subcutaneous injection with a liquid formulation of the triple agonist to be tested to assess effects on body weight, foot intake, and glucose tolerance.
C57BL/6J male mice were purchased from Jackson Laboratories at approximately 8 weeks of age. Mice were group housed and fed a high-fat, high-sugar diet from Research Diets (D12331). Mice were maintained on this diet for 12 weeks prior to initializing the pharmacology studies. Mice exceeding a measured body weight of 50 grams were considered diet-induced obese (DIO) and included in pharmacology studies. Mice were exposed to a controlled 12 h:12 h light:dark cycle at ambient room temperature (22° C.) with ab libitum access to food and water. Studies were approved by and performed according to the guidelines of the Institutional Animal Care and Use Committee of the University of Cincinnati.
All compounds in the study were formulated in the following buffer: 50 mM phosphate; 70 mM sodium chloride; 0.05% Tween-80, pH 7.4. Dosing solutions were formulated in glass vials and stored at 2-8° C. Dosing solutions were brought to room temperature before dosing and returned to 2-8° C. after dosing.
The animals were grouped to receive treatment as follows: Vehicle or GLP-1/GIP/Gcg receptor triple agonists as described herein, where vehicle is 50 mM phosphate, 70 mM sodium chloride; 0.05% (v/v) Tween-80, pH 7.4. The test compounds were dissolved in the vehicle, to stock concentrations of […], then diluted 50- to 200-fold in the vehicle to achieve the desired dosing solution concentrations. Animals were dosed subcutaneously once daily in the morning for each day of treatment with dosing solution at a volume of 2-5 μL per gram of body weight as necessary to achieve the desired dose (e.g. 0.3 nmol/kg, 1.0 nmol/kg, or 3.0 nmol/kg).
Body weight (BW) and food intake were measured immediately prior to dosing each day. The percent change in body was calculated individually for each mouse based on initial body weight prior to the first injection.

[3] = Pharmacokinetic study in minipigs, i.v. administration; parameters: species or system Göttingen minipigs; settings: female, Göttingen, minipig, in vivo, iv; minipigs, i.v. administration, harmonic mean; read-out: Terminal half-life t1/2 (converted)
Procedure: The purpose of this example is to determine the half-life in vivo of the triple agonists as described herein after i.v. administration to minipigs, i.e. the prolongation of their time in the body and thereby their time of action. This is done in a pharmacokinetic (PK) study, where the terminal half-life of the triple agonist in question is determined. By terminal half-life is generally meant the period of time it takes to halve a certain plasma concentration, measured after the initial distribution phase.
Female Göttingen minipigs were obtained from Ellegaard Göttingen Minipigs (Dalmose, Denmark) approximately 7-14 months of age and weighing from approximately 16-35 kg were used in the studies. The minipigs were housed individually and fed restrictedly once daily with SDS minipig diet (Special Diets Services, Essex, UK).
After at 3 weeks of acclimatisation two permanent central venous catheters were implanted in vena cava caudalis in each animal. The animals were allowed 1 week recovery after the surgery, and were then used for repeated pharmacokinetic studies with a suitable wash-out period between successive dosings.
The animals were fasted for approximately 18 hours before dosing and from 0 to 4 hours after dosing, but had adlibitum access to water during the whole period.
Intravenous injections (the volume corresponding to usually 1.5-2 nmol/kg, for example 0.1 mL/kg) of the triple agonists were given through one catheter, and blood was sampled at predefined time points for up to 14 days post dosing (preferably through the other catheter). Blood samples (for example 0.8 mL) were collected in 8 mM EDTA buffer and then centrifuged at 4° C. and 1942 g for 10 minutes.
Plasma was pipetted into Micronic tubes on dry ice and kept at −20° C. until analysed for plasma concentration of the triple agonists using ELISA, or a similar antibody-based assay, or LCMS. Individual plasma concentration-time profiles were analysed by a non-compartmental model in Phoenix WinNonLin ver. 6.4. (Pharsight Inc., Mountain View, CA, USA), and the resulting terminal half-lives (harmonic mean) determined.

[4] = molecular target: T2, human GIP receptor (Homo sapiens, UniProt P48546); test: In vitro functional potency (CRE luciferase; whole cells), human GIPR; format: cell-based; settings: BHK CRE luc2P hGIPR whole cells, read-out: hGIPR CRE Luc EC50
T2 construct: expressed in transfected cells; host or cells: BHK cells (parent line BHKTS13) containing CRE luciferase
T2 sequence (P48546 22-466): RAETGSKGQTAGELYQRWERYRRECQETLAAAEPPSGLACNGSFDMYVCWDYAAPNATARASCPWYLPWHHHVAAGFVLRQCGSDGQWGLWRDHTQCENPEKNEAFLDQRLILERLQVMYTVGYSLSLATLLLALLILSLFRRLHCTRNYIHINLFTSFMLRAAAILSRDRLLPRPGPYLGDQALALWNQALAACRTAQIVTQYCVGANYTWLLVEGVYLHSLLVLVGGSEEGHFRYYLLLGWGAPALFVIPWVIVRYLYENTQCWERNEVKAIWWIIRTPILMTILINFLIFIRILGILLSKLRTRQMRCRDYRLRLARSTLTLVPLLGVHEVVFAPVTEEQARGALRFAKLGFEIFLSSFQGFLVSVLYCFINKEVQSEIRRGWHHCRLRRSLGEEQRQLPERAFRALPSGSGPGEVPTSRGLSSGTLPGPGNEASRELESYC
Procedure: The purpose of this example is to test the functional activity, or potency, of the compounds in vitro at the human and mouse GLP-1, GIP, and Gcg receptors. The in vitro functional potency is the measure of target receptor activation in a whole cell assay.
In vitro functional potency was determined by measuring the response of the target receptor in a reporter gene assay in individual cell lines. The assay was performed in stably transfected BHK cell lines that expresses one of the following G-protein coupled receptors: human GLP-1 receptor, human GIP receptor, human Gcg receptor, mouse GLP-1 receptor, mouse GIP receptor, or mouse Gcg receptor; and where each cell line contains the DNA for the cAMP response element (CRE) coupled to a promoter and the gene for firefly luciferase (CRE luciferase). When the respective receptor is activated, it results in the production of cAMP, which in turn results in expression of the luciferase protein. When assay incubation is completed, luciferase substrate (luciferin) is added resulting in the enzymatic conversion of luciferin to oxyluciferin and producing bioluminescence. The luminescence is measured as the readout for the assay.
The cells lines used in these assays were BHK cells with BHKTS13 as a parent cell line. The cell lines were derived from a clone containing the CRE luciferase element and were established by further transfection with the respective receptor to obtain the relevant cell line.
The cells were cultured at 37° C. with 5% CO2 in Cell Culture Medium. They were aliquoted and stored in liquid nitrogen. The cells were kept in continuous culture and were seeded out the day before each assay.
GLP-1R and GcgR Cell Culture Medium consisted of DMEM medium with 10% FBS, 500 µg/mL G418, and 300 µg/mL hygromycin. GIPR Cell Culture Medium consisted of DMEM medium with 10% FBS, 400 µg/mL G418, and 300 µg/mL hygromycin. Assay Buffer consisted of DMEM w/o phenol red, 10 mM Hepes, 1× Glutamax, 1% ovalbumin, and 0.1% Pluronic F-68.
• 1) Cells were plated at 5000 cells/well and incubated overnight in the assay plate. • 2) Cells were washed once in DPBS. • 3) Stocks of the test compounds and reference compounds in concentrations ranging from 100-300 pM were diluted 1:150 in Assay Buffer.
The data from the microtiter plate reader was first regressed in an Excel in order to calculate the x-axis, log scale concentrations based on the individual test compound's stock concentration and the dilutions of the assay. […] The software performs a non-linear regression (log(agonist) vs response). A minimum of two replicates was measured for each sample. The reported values are averages of the replicates.

[5] = daily s.c. dosing over 13 days, compared to vehicle

## CC[C@H](C)[C@H](NC(=O)[C@H](CO)NC(=O)[C@H](Cc1ccc(O)cc1)NC(=O)[C@H](CC(=O)O)NC(=O)[C@H](CO)NC(=O)[C@@H](NC(=O)[C@H](Cc1ccccc1)NC(=O)[C@@H](NC(=O)CNC(=O)[C@H](Cc1c[nH]cn1)NC(=O)C(C)(C)NC(=O)[C@@H](N)Cc1c[nH]cn1)[C@@H](C)O)[C@@H](C)O)C(=O)N[C@@H](CC(C)C)C(=O)N[C@@H](CC(C)C)C(=O)N[C@@H](CCC(=O)O)C(=O)N[C@@H](CCCCNC(=O)[C@@H](N)CCCCNC(=O)[C@@H](N)CCCCNC(=O)CC[C@H](NC(=O)CCCCCCCCCCCCCCCCCCC(=O)O)C(=O)O)C(=O)N[C@@H](CCC(N)=O)C(=O)N[C@@H](C)C(=O)N[C@@H](C)C(=O)NC(C)(C)C(=O)N[C@@H](CCC(=O)O)C(=O)N[C@@H](Cc1ccccc1)C(=O)N[C@H](C(=O)N[C@@H](CCC(N)=O)C(=O)N[C@@H](Cc1c[nH]c2ccccc12)C(=O)N[C@@H](CC(C)C)C(=O)N[C@@H](CC(C)C)C(=O)N[C@@H](CCC(=O)O)C(=O)NCC(=O)NCC(=O)N1CCC[C@H]1C(=O)N[C@@H](CO)C(=O)N[C@@H](CO)C(=O)NCC(=O)N[C@@H](C)C(=O)N1CCC[C@H]1C(=O)N1CCC[C@H]1C(=O)N1CCC[C@H]1C(=O)N[C@@H](CO)C(N)=O)C(C)C [Compound No. 43] (H-H[Aib]HGTFTSDYSILLEK([εLys-εLys-γGlu-C20 diacid])QAA[Aib]EFVQWLLEGGPSSGAPPPS-NH2)
[1]
  EC50: 3 pM
[2]; 1.0 nmol/kg group
  Absolute BW (grams) Day 0: 60.4 ± 1.0 grams
[2]; 1.0 nmol/kg s.c. once daily
  Absolute BW (grams) Day 13: 48.7 ± 1.4 grams
  Change in BW (%) Day 13: −19.4 ± 1.5%
  Cumulative food intake (grams) Day 13: 21.1 ± 3.3 grams
[2]; 3.0 nmol/kg group
  Absolute BW (grams) Day 0: 60.1 ± 1.9 grams
[2]; 3.0 nmol/kg s.c. once daily
  Absolute BW (grams) Day 13: 36.3 ± 1.0 grams
  Change in BW (%) Day 13: −39.5 ± 1.3%
  Cumulative food intake (grams) Day 13: 11.5 ± 2.4 grams
[2]; [5]
  reduction in body weight (in words): superior reduction
  reduction in food intake (in words): superior reduction
[3]
  half-life: 71 h

## CC[C@H](C)[C@H](NC(=O)[C@H](CO)NC(=O)[C@H](Cc1ccc(O)cc1)NC(=O)[C@H](CC(=O)O)NC(=O)[C@H](CO)NC(=O)[C@@H](NC(=O)[C@H](Cc1ccccc1)NC(=O)[C@@H](NC(=O)CNC(=O)[C@H](Cc1c[nH]cn1)NC(=O)C(C)(C)NC(=O)[C@@H](N)Cc1c[nH]cn1)[C@@H](C)O)[C@@H](C)O)C(=O)N[C@@H](CC(C)C)C(=O)N[C@@H](CC(C)C)C(=O)N[C@@H](CCC(=O)O)C(=O)N[C@@H](CCCCNC(=O)[C@@H](N)CCCCNC(=O)[C@@H](N)CCCCNC(=O)CC[C@H](NC(=O)CCCCCCCCCCCCCCCCCCC(=O)O)C(=O)O)C(=O)N[C@@H](CCC(N)=O)C(=O)N[C@@H](C)C(=O)N[C@@H](C)C(=O)N[C@@H](CCC(N)=O)C(=O)N[C@@H](CCC(=O)O)C(=O)N[C@@H](Cc1ccccc1)C(=O)N[C@H](C(=O)N[C@@H](CCC(N)=O)C(=O)N[C@@H](Cc1c[nH]c2ccccc12)C(=O)N[C@@H](CC(C)C)C(=O)N[C@@H](CC(C)C)C(=O)N[C@@H](CCC(=O)O)C(=O)NCC(=O)NCC(=O)N1CCC[C@H]1C(=O)N[C@@H](CO)C(=O)N[C@@H](CO)C(=O)NCC(=O)N[C@@H](C)C(=O)N1CCC[C@H]1C(=O)N1CCC[C@H]1C(=O)N1CCC[C@H]1C(=O)N[C@@H](CO)C(=O)O)C(C)C [Compound No. 53] (H-H[Aib]HGTFTSDYSILLEK([εLys-εLys-γGlu-C20 diacid])QAAQEFVQWLLEGGPSSGAPPPS-OH)
[4]; Table 2
  EC50: 4.8 pM

## CCCCCCCCCCCCCCCC(=O)NCCCC[C@H](NC(=O)[C@H](CO)NC(=O)[C@@H]1CCCN1C(=O)[C@@H]1CCCN1C(=O)[C@@H]1CCCN1C(=O)[C@H](C)NC(=O)CNC(=O)[C@H](CO)NC(=O)[C@H](CO)NC(=O)[C@@H]1CCCN1C(=O)CNC(=O)CNC(=O)[C@H](C)NC(=O)[C@H](CC(C)C)NC(=O)[C@H](CC(C)C)NC(=O)[C@H](Cc1c[nH]c2ccccc12)NC(=O)[C@H](CC(N)=O)NC(=O)[C@@H](NC(=O)[C@H](Cc1ccccc1)NC(=O)[C@H](CCC(=O)O)NC(=O)C(C)(C)NC(=O)[C@H](C)NC(=O)[C@H](C)NC(=O)[C@H](CCC(N)=O)NC(=O)[C@H](CCCCN)NC(=O)[C@H](CC(=O)O)NC(=O)[C@H](CC(C)C)NC(=O)[C@H](Cc1ccc(O)cc1)NC(=O)[C@@H](NC(=O)[C@H](CO)NC(=O)[C@H](Cc1ccc(O)cc1)NC(=O)[C@H](CC(=O)O)NC(=O)[C@H](CO)NC(=O)[C@@H](NC(=O)[C@H](Cc1ccccc1)NC(=O)[C@@H](NC(=O)CNC(=O)[C@H](CCC(N)=O)NC(=O)C(C)(C)NC(=O)[C@@H](N)Cc1ccc(O)cc1)[C@@H](C)O)[C@@H](C)O)[C@@H](C)CC)C(C)C)C(N)=O [Compound No. 58, reference compound] (H-Y[Aib]QGTFTSDYSIYLDKQAA[Aib]EFVNWLLAGGPSSGAPPPSK(Palmitoyl)-NH2; N-terminus assumed)
[4]; Table 1, position of substituent varied
  EC50: 7.2 pM

## CC(C)C[C@H](NC(=O)[C@H](CC(C)C)NC(=O)[C@H](Cc1c[nH]c2ccccc12)NC(=O)[C@H](CCC(N)=O)NC(=O)[C@@H](NC(=O)[C@H](Cc1ccccc1)NC(=O)[C@H](CCC(=O)O)NC(=O)C(C)(C)NC(=O)[C@H](C)NC(=O)[C@H](Cc1ccc(O)cc1)NC(=O)[C@H](CCC(N)=O)NC(=O)[C@H](CCCCNC(=O)[C@@H](N)CCCCNC(=O)[C@@H](N)CCCCNC(=O)CC[C@H](NC(=O)CCCCCCCCCCCCCCCCCCC(=O)O)C(=O)O)NC(=O)[C@H](CCC(=O)O)NC(=O)[C@H](CC(C)C)NC(=O)[C@H](Cc1ccc(O)cc1)NC(=O)[C@H](Cc1ccc(O)cc1)NC(=O)[C@H](CO)NC(=O)[C@H](Cc1ccc(O)cc1)NC(=O)[C@H](CC(=O)O)NC(=O)[C@H](CO)NC(=O)[C@@H](NC(=O)[C@H](Cc1ccccc1)NC(=O)[C@@H](NC(=O)CNC(=O)[C@H](Cc1c[nH]cn1)NC(=O)C(C)(C)NC(=O)[C@@H](N)Cc1c[nH]cn1)[C@@H](C)O)[C@@H](C)O)C(C)C)C(=O)N[C@@H](CCC(=O)O)C(=O)NCC(=O)NCC(=O)N1CCC[C@H]1C(=O)N[C@@H](CO)C(=O)N[C@@H](CO)C(=O)NCC(=O)N[C@@H](C)C(=O)N1CCC[C@H]1C(=O)N1CCC[C@H]1C(=O)N1CCC[C@H]1C(=O)N[C@@H](CO)C(N)=O [Compound No. 29] (H-H[Aib]HGTFTSDYSYYLEK([εLys-εLys-γGlu-C20 diacid])QYA[Aib]EFVQWLLEGGPSSGAPPPS-NH2)
[4]; Table 2
  EC50: 7.2 pM
